# Measured values: PubChem BioAssay (NCI)
#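 Growth conditions: 96-well plates. Treatment: test compound, 48 hours, 5 concentrations. Analysis: linear interpolation between bracketing concentrations; unreached endpoints set to highest concentration. GI50: concentration for 50% inhibition of growth. TGI marks complete inhibition of growth.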
# Experiments:
# Assay in all cases: DTP human tumour cell line panel, 48 h
# SF-295 CNS = test system: SF-295 CNS
# UO-31 renal = test system: UO-31 renal
# HOP-62 NSCLC = test system: HOP-62 NSCLC
# HCT-15 colon = test system: HCT-15 colon
# UACC-257 melanoma = test system: UACC-257 melanoma
# UACC-62 melanoma = test system: UACC-62 melanoma
# OVCAR-3 ovarian = test system: OVCAR-3 ovarian
# SK-MEL-2 melanoma = test system: SK-MEL-2 melanoma
# KM12 colon = test system: KM12 colon
# T-47D breast = test system: T-47D breast
SMILES,TGI (SF-295 CNS) [µM],TGI (UO-31 renal) [µM],TGI (HOP-62 NSCLC) [µM],TGI (HCT-15 colon) [µM],TGI (UACC-257 melanoma) [µM],TGI (UACC-62 melanoma) [µM],TGI (OVCAR-3 ovarian) [µM],TGI (SK-MEL-2 melanoma) [µM],TGI (KM12 colon) [µM],TGI (T-47D breast) [µM],GI50 (SF-295 CNS) [nM],GI50 (UO-31 renal) [nM],GI50 (HOP-62 NSCLC) [nM],GI50 (UACC-257 melanoma) [nM],GI50 (UACC-62 melanoma) [nM],GI50 (OVCAR-3 ovarian) [nM],GI50 (SK-MEL-2 melanoma) [nM],GI50 (KM12 colon) [µM],GI50 (T-47D breast) [nM]
OCC1CCCC(n2cnc3c(=S)nc[nH]c32)O1 (stereo not given),> 100,> 100,> 100,> 100,> 100,> 100,> 100,> 100,> 100,> 100,–,–,–,–,–,–,–,–,–
C=CC(=O)Nc1cccc(-c2nc(SC)nc(Nc3ccccc3OC)c2C#N)c1,4.46,3.18,6.17,–,8.78,14.6,3.58,8.58,12,4.34,1950,1420,2250,2530,2810,1870,2560,3.02,1590
O=C(O)c1ccc(NC(c2ccccc2)c2ccc3cccnc3c2O)cc1 (stereo not given),> 100,34.6,> 100,> 100,46.2,36.7,14.2,> 100,> 100,50.1,–,–,–,–,–,–,–,–,–
N#Cc1c(NC(=S)NC(=O)c2ccccc2)nc2c(c1-c1ccccc1)CCC2,> 100,> 100,> 100,> 100,> 100,> 100,> 100,–,> 100,> 100,–,–,–,–,–,–,–,–,–
Nc1n[nH]c(=O)[nH]1,> 100,> 100,> 100,> 100,> 100,> 100,> 100,> 100,> 100,–,–,–,–,–,–,–,–,–,–
O=C(Nc1ccc(I)cc1C(=O)NCCO)c1cccs1,> 100,> 100,> 100,> 100,> 100,> 100,> 100,> 100,> 100,–,–,–,–,–,–,–,–,–,–
